In brackets after ≈: the same amount, converted by molar mass. Where two headings read alike, the source gives them in different places.
What was measured:
[1] = test system: Staphylococcus aureus (S. aureus) 11540 strain; assay: Standard microdilution MIC assay, S. aureus; type: cell-based
Method in brief: (§1)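 Broth microdilution per CLSI M7-A8 guidelines, with reference-strain quality control run in the same design; MIC determined per strain. Activity scored +/− against a 16 micrograms/mL cutoff.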

[2] = test system: Escherichia coli strain ATCC25922; assay: Standard microdilution MIC assay, E. coli; type: cell-based
Method in brief: as §1

[3] = Rat five day safety study (bodyweight gain, reticulocyte count change); type: in vivo; conditions: male Sprague-Dawley juvenile rats, n=5, once daily slow intravenous infusion for 5 days at or near maximum-tolerated dose; for BW Result: bodyweight gain; for Hematology Result: reticulocyte count change
Procedure: The compounds of the present disclosure were tested for safety in a multi-day dosing study in rat. Key parameters that were monitored are bodyweight gain and hematological changes, particularly changes in reticulocyte counts. Male Sprague-Dawley (CD) juvenile rats were received from Charles River with double jugular vein catheters. For each compound, n=5. […] Bodyweights were recorded daily for the first 5 days (during the dosing period), then 2 to 3 times per week thereafter. Blood was collected via a jugular vein catheter into EDTA anti-coagulated tubes for complete blood counts (CBC) on Days 0 (baseline), 3 and 7. On Day 22, blood was drawn via a cardiac puncture into EDTA coated tubes for final CBC, and serum separator tubes for the complete clinical chemistry profile. The blood that was collected into serum separator tubes was allowed to clot at room temperature for approximately 30 minutes, spun in a centrifuge at 2000 rpm, and the resulting serum was aliquoted. All samples were sent on wet ice to Charles River Labs for analysis.

Enterobacteriaceae = assay: CLSI broth microdilution MIC, multiresistant Enterobacteriaceae panel; type: cell-based; conditions: for MIC, peak of unimodal distribution: 68 Enterobacteriaceae, FIG. 1
Procedure: (§2) Four compounds, including Compound Nos. 120 and 162 of the present application (RX-04B and RX-04C, respectively) were tested against (i) multiresistant Enterobacteriaceae and Acinetobacter with carbapenemases; (ii) Enterobacteriaceae with MCR-1; and (iii) P. aeruginosa with altered efflux (see Tables 4 and 5). In this case, MCR-1 is relevant because its activity reduces the negative charge of lipopolysaccharides, potentially affecting binding of poly-basic molecules such as the compounds tested herein, as well as polymyxins.
(§3) MICs of the four tested compounds and comparators (amikacin, cefepime, colistin, meropenem and tigecyline) were determined by CLSI broth microdilution using pre-prepared plates (Trek Diagnostic Systems) (CLSI Approved Standard M7-A10). Carbapenemase and mcr-1 genes were detected by PCR or sequencing. Efflux levels in P. aeruginosa isolates were inferred by interpretive reading of antibiogram data.

CPE = assay: CLSI broth microdilution MIC, carbapenemase-producing Enterobacteriaceae (CPE); type: cell-based; conditions: 35/36 (97%) of CPE, FIG. 2
Procedure: as §2, §3

MCR-1 isolates = assay: CLSI broth microdilution MIC, Enterobacteriaceae with MCR-1; type: cell-based; conditions: all MCR-1 isolates (n=14), FIG. 3
Procedure: as §2, §3

E. coli DH10B = assay: CLSI broth microdilution MIC, E. coli DH10B recipient; type: cell-based
Procedure: as §3

[4] = test system: E. coli DH10B mcr-1 transformant; assay: CLSI broth microdilution MIC, E. coli DH10B mcr-1 transformant; type: cell-based
Procedure: as §3

A. baumannii = assay: CLSI broth microdilution MIC, A. baumannii; type: cell-based
Procedure: as §2, §3

P. aeruginosa = assay: CLSI broth microdilution MIC, P. aeruginosa with altered efflux; type: cell-based
Procedure: as §2, §3

[5] = Escherichia coli, read-out: MIC
[6] = Pseudomonas aeruginosa, almost half (48%) of the MICs, FIG. 5, read-out: MIC

Compound	MIC [1] [µg/mL]	MIC [2] [µg/mL]	BW Result [3]	Hematology Result [3]	MIC, peak of unimodal distribution (Enterobacteriaceae) [µg/mL]	MIC (E. coli DH10B; [5]) [µg/mL]	MIC ([4]; Escherichia coli) [µg/mL]	further results
COC[C@H](N)CCCc1cc(-c2cc3cn(-c4ccc([C@@H]5CCC[C@@H](CCNC(C)=N)N5)cc4)c(=O)nc3[nH]2)cc(C(F)(F)F)c1 [Compound 200]	≤ 16	≤ 16	+ (a “+” in “BW result” indicates that the rat exhibited a weight gain of 20% or more)	− (a “−” indicates indicates that the rat exhibited a reticulocyte count change of greater than 65%)				
CC(=N)NCC[C@@H]1CCC[C@@H](c2ccc(-n3cc4cc(-c5cc(CCC[C@@H](N)C6CC6)cc(C(F)(F)F)c5F)[nH]c4nc3=O)cn2)N1 [Compound 249]	≤ 16	≤ 16	+ (a “+” in “BW result” indicates that the rat exhibited a weight gain of 20% or more)	+ (a “+” in “Hematology result” indicates indicates that the rat exhibited a reticulocyte count change of 65% or less)				
CC(=N)N[C@H](C)C[C@@H]1CCC[C@@H](c2ccc(-n3cc4cc(-c5cc(CCC[C@H](C)N)cc(Cl)c5F)[nH]c4nc3=O)cc2)N1 [Compound 254]	≤ 16	≤ 16	+ (a “+” in “BW result” indicates that the rat exhibited a weight gain of 20% or more)	+ (a “+” in “Hematology result” indicates indicates that the rat exhibited a reticulocyte count change of 65% or less)				
CC(=N)NCC[C@@H]1CCC[C@@H](c2ccc(-n3cc4cc(-c5cc(CCC[C@H](C)N)cc(Cl)c5F)[nH]c4nc3=O)cc2)N1CCCF [Compound 264]	≤ 16	≤ 16	+ (a “+” in “BW result” indicates that the rat exhibited a weight gain of 20% or more)	+ (a “+” in “Hematology result” indicates indicates that the rat exhibited a reticulocyte count change of 65% or less)				
CC(=N)NCC[C@@H]1CCC[C@@H](c2ccc(-n3cc4cc(-c5cc(CCC[C@H](C)N)cc(Cl)c5F)[nH]c4nc3=O)cc2)N1CCCO [Compound 290]	≤ 16	≤ 16	+ (a “+” in “BW result” indicates that the rat exhibited a weight gain of 20% or more)	+ (a “+” in “Hematology result” indicates indicates that the rat exhibited a reticulocyte count change of 65% or less)				
CC(=N)NCC[C@@H]1CCC[C@@H](c2ccc(-n3cc4cc(-c5cc(CCC[C@H](C)N)c(C(F)(F)F)cc5F)[nH]c4nc3=O)cc2)N1 [Compound 317]	≤ 16	≤ 16	− (a “−” indicates that the rat exhibited a weight gain of less than 20%)	− (a “−” indicates indicates that the rat exhibited a reticulocyte count change of greater than 65%)				
CCCN1[C@H](CCNC(C)=N)CCC[C@H]1c1ccc(-n2cc3cc(-c4cc(CCC[C@H](C)N)cc(Cl)c4F)[nH]c3nc2=O)cc1 [Compound 360]	≤ 16	≤ 16	+ (a “+” in “BW result” indicates that the rat exhibited a weight gain of 20% or more)	+ (a “+” in “Hematology result” indicates indicates that the rat exhibited a reticulocyte count change of 65% or less)				
C[C@H](N)CCCc1cc(OC(F)(F)F)c(F)c(-c2cc3cn(-c4ccc([C@@H]5CCC[C@@H](CCNC(=N)N)N5)cc4)c(=O)nc3[nH]2)c1 [RX-04A]					1	0.25 (≈ 0.389 µM)	0.25 (≈ 0.389 µM)	MIC (Enterobacteriaceae; 67/68 (>98%) MICs): 0.25 to 2 µg/mL (≈ 0.389 to 3.11 µM); MIC (Enterobacteriaceae; MICs mostly (summary)): 1 to 2 µg/mL (≈ 1.56 to 3.11 µM); MIC relative to the MIC for E. coli ATCC 25922 (CPE): ≤ 4 fold; MIC relative to the MIC for E. coli ATCC 25922 (MCR-1 isolates): ≤ 2 fold; MIC (A. baumannii; Acinetobacter baumannii, 7/10 values, read-out: MIC): 1 to 2 µg/mL (≈ 1.56 to 3.11 µM); MIC (A. baumannii; MICs mostly (summary)): 1 to 2 µg/mL; MIC (P. aeruginosa; MICs mostly (summary)): 1 to 4 µg/mL; MIC change in isolates with elevated efflux (P. aeruginosa; P. aeruginosa isolates with elevated efflux): not raised; MIC (P. aeruginosa; Pseudomonas aeruginosa, 19/20 (95%) isolates, read-out: MIC): 1 to 4 µg/mL (≈ 1.56 to 6.22 µM)
CSc1cc(-n2cc3cc(-c4cc(CCC[C@@H](N)C5CC5)cc(Cl)c4F)[nH]c3nc2=O)ccc1[C@@H]1CCC[C@@H](CCNC(=N)N)N1 [RX-04B]					1	0.5 (≈ 0.752 µM)	0.5 (≈ 0.752 µM)	
N=C(N)NCC[C@@H]1CCC[C@@H](c2ccc(-n3cc4cc(-c5cc(CCC[C@@H](N)CO)cc(Cl)c5F)[nH]c4nc3=O)cc2F)N1 [RX-04C]					2	0.5 (≈ 0.797 µM)	0.5 (≈ 0.797 µM)	MIC (P. aeruginosa; [6]): ≥ 16 µg/mL
C[C@H](N)CCCc1cc(Cl)c(F)c(-c2cc3cn(-c4ccc([C@@H]5CCC[C@@H](CCNC(=N)CN)N5)cc4)c(=O)nc3[nH]2)c1 [RX-04D]					2	1 (≈ 1.65 µM)	1 (≈ 1.65 µM)	relative activity among analogues (A. baumannii; 10 A. baumannii, FIG. 4): least active analogue; MIC (P. aeruginosa; [6]): ≥ 16 µg/mL
colistin [reference compound]								MIC (E. coli DH10B): 0.25 µg/mL; MIC ([4]; MCR-1 Transformant): 4 µg/mL

— patent US11999739B2, “Antimicrobials methods of making and using the same” (BIOVERSYS AG, priority 2016, dated 2024)
